Test results from patent EP2050747A1, “Dimers of harmol or of its derivatives and uses thereof” (BioAlliance Pharma, priority 2007, dated 2009).

Experiments:
F-actin = assay: Actin dynamics, fluorescence anisotropy assay in tumor cell cytosolic fraction; assay type: biochemical
Experimental: Actin dynamics have been quantified in tumor cell cytosolic fraction using the fluorescence anisotropy assay which gains access to rate constant of F-actin elongation (kobs) and steady state concentration of F-actin (Δ mA max).
All reactions were carried out at 22°C and fluorescence anisotropy signal was recovered at 520 nm with excitation at 490 nm in a Beacon 2000 (Panvera). Alexa 488 actin (Molecular Probes) was centrifuged at 35 000 rpm for 2 h at 4°C to sediment residual actin polymers in a Beckman L5-50B ultracentrifuge. […] 80% of the supernatant was withdrawn; the concentration was defined through fluorescence measurements (excitation at 490 nm and signal recovering at 520 nm). The ultracentrifuged actin concentration was calculated using the non ultracentrifuged Alexa 488 actin as a standard. The supernatant was aliquoted, frozen in liquid nitrogen and stored at -80°C.
Before experiment, an aliquot of ultracentrifuged Alexa 488 actin was diluted to a concentration of 1 mg/ml in G buffer (5 mM Tris pH 8.1, 2 mM CaCl2, 0.2 mM DTT, 0.2 mM ATP). 3 µl of diluted Alexa 488 actin was mixed in 168 µl of G buffer and actin monomers anisotropy was measured before the addition of 4 µl of polymerisation buffer (2.5 M KCI, 50 mM MgCl2, 25 mM ATP), 5 µl of G buffer in the presence or in the absence of the chemical molecule and 20 µl cellular extract of normal NIH 3T3 cells or malignant NIH 3T3 EF cells at 2 mg/ml. The final concentration of Alexa 488 actin was 4 nM. The ratio of unlabelled to labelled actin was about 140/4 nM. Measurements were made each 10 sec for 200 sec. Actin monomers anisotropy value was subtracted, yielding the anisotropy enhancement (Δ mA). The data were fitted with the equation Y= Ymax . [1- exp(- K.X)]. The curves start at zero and ascend to Ymax that corresponds to the steady state anisotropy value (Δ mA eq), with a rate constant K. Y is anisotropy values of which monomers anisotropy is substracted and X is the time (Assessment of cellular actin dynamics by measurement of fluorescence anisotropy. Anal Biochem. 2007 Aug 1;367(1):95-103. Epub 2007 Apr 5. Spitz et al.).

[1] = system: malignant NIH 3T3 EF cells; assay: Wound healing assay (cell motility); assay type: cell-based; conditions: NIH 3T3 EF cells, 5 µM
Experimental: Harmol dimers have been tested in a cell motility assay: the behaviour of tumoral cells treated by these dimers was compared with non-treated tumoral cells in a wound healing assay. Wound healing assay was performed to evaluate the effect of tested molecules on motility of malignant NIH 3T3 EF cells and melanoma cell line B16F10. About 100 000-200 000 cells were seeded in a 6-well culture plate and the tested molecule was added 24 hours later. Cells were grown for 3 days to confluence about 90-95% and small scratch-wounds (1 mm width) were made with a pipette tip. Cell debris were removed, then the cultures were incubated in complete medium for 10 h in the presence of the same concentration of the tested molecule. Then, the cells were fixed for 10 min in PBS containing 3.7% formaldehyde at 4°C.

NIH 3T3 EF = assay: Cloning assay, colony formation in semi solid medium (methylcellulose); assay type: cell-based; conditions: in words
Experimental: (§1) Cells were embedded in complete culture medium supplemented with 0,8% methylcellulose (Methocel MC4000, Sigma), seeded in triplicate into 35-mm dishes (Greiner Bio-one Ref 627102, Dominique Dutscher) and incubated at 37 °C in a humidified 5% CO2 atmosphere.
(§2) The number of cells seeded was 1000 cells per dish. After one week (B16F10 cell line) to 3 weeks (NIH 3T3 EF cell line), macroscopic clones were counted.

human tumor cell lines = conditions: cited from earlier work
NIH 3T3 EF cells = assay: Rescue of F-actin network, FITC-phalloidin fluorescence microscopy; assay type: cell-based; conditions: compared with the concentrations used in harmol dimers test
Experimental: Malignant NIH 3T3 EF cells were seeded onto glass cover slips at a density of 2000 cells per cm^2. The next day, tested molecules were applied to NIH 3T3 EF cells at various non cytotoxic concentrations. Three days later, cells were fixed for 10 min in PBS containing 3.7 % formaldehyde at 4°C before examination with a fluorescence microscope. The formaldehyde solution was neutralized with 50 mM NH4Cl. Permeabilisation was carried out for 4 min with 0.4% Triton X-100 in PBS. Cells were incubated for 1 h at room temperature with blocking buffer (3% bovine serum albumin in PBS) and then for 1 h with FITC-phalloidin (Sigma) which stabilizes structures by inhibiting phosphate release from ADP-Pi-actin filaments and allows visualization of actin filaments by fluorescence microscopy. The cover slips were mounted on microscope slides using a solution of glycerol 50%, DABCO 2.5% in PBS as embedding medium.

[2] = system: cyclin-dependent kinases (CDKs); conditions: cited from earlier work
B16F10 = assay: Cloning assay, colony formation in semi solid medium (methylcellulose); assay type: cell-based, Murine
Experimental: as §1, §2

monoamine oxydase = conditions: cited from earlier work
B16F10 tumor = assay: In vivo tumorigenicity assay, subcutaneous B16F10 tumor growth; design: species or system C57BU6 mice
Experimental: Female 6-8 week-old C57BU6 mice were provided by Harlan (Gannat, France).
Animals were housed in air-conditioned atmosphere, given food and water in standard conditions. One million B16F10 cells in 0.1 ml PBS were injected subcutaneously into the right flank of mice. Seven days after cells inoculation, it was possible to measure tumor volume (day 0). Thereafter, before drug administration, female C57BU6 mice were randomized to form 2 groups. […]
B16F10 tumor development was monitored for 2 weeks. The tumor size was estimated every fourth day by measuring the diameters of the tumors in two perpendicular dimensions using callipers. The volume of tumor (V) was calculated using the formula, V = 2W(U2)2 , where L and W were respectively the length and the width of tumor.
In vivo tumorigenicity assay was studied with harmine. […] In parallel, control mice were treated by one daily oral route administration of the vehicle.

Structure (SMILES): COc1ccc2c(c1)[nH]c1c(C)nccc12 [harmine, reference compound]
- F actin elongation rate constant compared with NIH 3T3 cytosolic fraction (F-actin; NIH 3T3 EF cytosolic fraction, BA016FZ527 at 10 µM, harmine concentration not given): lower
- F actin steady state value (Δ mA max), effect in words (F-actin; added to assay medium, NIH 3T3 EF cytosolic fraction or lysate, versus untreated, harmol at 10 µM): increase
- F actin elongation rate constant (Kobs), effect in words (F-actin; added to assay medium, NIH 3T3 EF cytosolic fraction, versus untreated): increase
- inhibition of migration compared with the harmol dimers [1]: lower inhibition of migration
- concentration at which inhibition of NIH 3T3 EF colony formation was observed (NIH 3T3 EF): micromolar concentration
- cytotoxicity against human tumor cell lines (human tumor cell lines): strong cytotoxicity
- modification in actin cytoskeleton network (NIH 3T3 EF cells): higher concentrations
- inhibition of cyclin-dependent kinases (CDKs) [2]: selective inhibitor
- concentration at which inhibition of B16F10 colony formation was observed (B16F10): about 1 µM
- monoamine oxydase inhibition (monoamine oxydase): monoamine oxydase inhibitor
- tumoral growth inhibition (B16F10 tumor; daily per os 100 mg/kg (2 x 50 mg/kg) for 15 days): Any tumoral growth inhibition
- tumoral growth inhibition (B16F10 tumor; daily per os 200 mg/Kg (2 x 100 mg/kg) for 15 days): Any tumoral growth inhibition
